Key:
Lewis lung carcinomas = assay: Murine Lewis lung carcinoma model (tumor volume); format: in vivo, C57BL/6 mice; conditions: day 32 after cancer cell injection, vs control group
Experimental: Lewis lung carcinomas were implanted sub-cutaneously into the foot pad of male C57BL/6 mice. The mice were subsequently treated with 4-[5-(4-chlorophenyl)-3-(difluoromethyl)-1H-pyrazol-1-yl)benzenesulfonamide. The drug was supplied in the drinking water at 6 mg/kg/day. […] The drug was supplied in the drinking water at the maximum tolerated dose of […]. A total of 10 mice/compound were tested. Tumor volume was determined twice a week using a plethysmometer. The % inhibition value is calculated by calculating the difference in tumor size compared with the control group.

PC-3 cells = assay: Human prostate cancer PC-3 tumors in nude mice; format: in vivo; conditions: 20 mg/kg/day in water
Experimental: (§1) Two human prostate cancer cell lines (PC-3 and LNCaP) were obtained (ATCC) to determine the efficacy of cyclooxygenase-2 inhibitors to inhibit tumor growth in a therapeutic model. In addition, the LNCaP cell line secretes prostate serum antigen (PSA) when grown in nude mice.
PC-3 cells (10^6 cells/0.2 ml of 30% matrigel) in RPMI 1640 medium was injected on the back of nude mice. […] After 45 days, PGE2 and TXB2 were measured.

LNCaP = assay: Human prostate cancer LNCaP tumors in nude mice; format: in vivo; conditions: dose equivalent to 6 mg/kg/day in the drinking water
Text: as §1
PSA level was reduced to approximately 50% as judged by western blotting.

[1] = tested on: Lewis Lung carcinoma cells; assay: Combination therapy in Lewis Lung carcinoma model (tumor volume); format: in vivo, C57BL/6 mice; conditions: CTX 50 mg/kg injected on days 5, 7 and 9 after implantation
Experimental: Lewis Lung carcinoma cells (2.5 x 10^6 cells) prepared from a brei carried in C57BL/6 mice were injected sub-cutaneously into the hind legs of mice.

NS(=O)(=O)c1ccc(-n2nc(C(F)F)cc2-c2ccc(Cl)cc2)cc1 [COX-2 inhibitor, 4-[5-(4-chlorophenyl)-3-(difluoromethyl)-1H-pyrazol-1-yl]benzenesulfonamide]
Tumor Volume (Day 32) % Inhibition (Lewis lung carcinomas; 6 mg/kg/day in the drinking water): 70.86% | inhibited tumor growth (PC-3 cells; administered from day 28, after 45 days): 55% | PGE2 levels reduced (PC-3 cells; measured after 45 days): 80-90% | TXB2 levels reduced (PC-3 cells; measured after 45 days): 80-90% | inhibited the growth of the tumor (LNCaP; day 58): 55% | PSA level was reduced to (LNCaP; judged by western blotting): approximately 50%

O=P1(N(CCCl)CCCl)NCCCO1 (centres unmarked) [CTX, Cyclophosphamide]
Tumor Volume (Day 22) % Inhibition [1]: 57%

COc1ccc2c(c1)c(CC(=O)O)c(C)n2C(=O)c1ccc(Cl)cc1 [Indomethacin, indomethacin, reference compound]
Tumor Volume (Day 32) % Inhibition (Lewis lung carcinomas; 2 mg/kg/day (maximum tolerated dose) in the drinking water): 62.90%

Reference: EP1479385B1, “Use of cyclooxygenase-2 inhibitors in the treatment and prevention of neoplasia” (G.D. Searle LLC, priority 1996, dated 1998)
